Results from PubChem BioAssay (NCI).
“And” between values parts separate entries of the source, which are not always exact repeats. Equal entries are not always repeated.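 Assay format: 96-well plates, 48-hour exposure. Here, GI50 denotes the concentration required for 50% inhibition of growth. Definition used: TGI = concentration required for complete inhibition of growth.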

Assays:
Experiment in all cases: NCI anticancer screen, dose series, 48 h
[1] = tested on: EKVX NSCLC
[2] = tested on: HOP-92 NSCLC
[3] = tested on: M14 melanoma
[4] = tested on: A498 renal
[5] = tested on: LOX IMVI melanoma
[6] = tested on: MDA-N
[7] = tested on: NCI/ADR-RES ovarian
[8] = tested on: SK-MEL-2 melanoma
[9] = tested on: RXF 393 renal
[10] = tested on: NCI-H226 lung

Structure (SMILES)	TGI [1]	TGI [2]	TGI [3]	TGI [4]	TGI [5]	TGI [6] [µM]	TGI [7]	TGI [8]	TGI [9]	TGI [10]	GI50 [1] [µM]	GI50 [2] [µM]	GI50 [3] [µM]	GI50 [4] [µM]	GI50 [5] [µM]	GI50 [6] [µM]	GI50 [7] [µM]	GI50 [8] [µM]	GI50 [9] [µM]	GI50 [10] [µM]
COc1ccc(/C(C)=C2\CCCN(Cc3ccccc3)C2)cc1	> 100 µM	60.4 µM	36.7 µM	> 100 µM	35.3 µM	47.7	57.5 µM	43.4 µM	43.2 µM	63.6 µM										
Cc1cn(CC(=S)NCCc2c[nH]c3ccccc23)c(=O)[nH]c1=O	> 100 µM	> 100 µM	> 100 µM	> 100 µM	> 100 µM	> 100	> 100 µM	> 100 µM	> 100 µM	> 100 µM										
CSC12c3cc(C)n(-c4ccc(I)cc4)c3CC(C)(C)CN1C(=O)C2Oc1ccccc1 (stereo not given)	> 100 µM	> 100 µM	> 100 µM	> 100 µM	> 100 µM	> 100	> 100 µM	> 100 µM	> 100 µM	> 100 µM										
CC(C)CCNC(=O)c1ccc(CNC(=O)/C=C/c2ccc3ccccc3c2)cc1	> 100 µM	> 100 µM	> 100 µM	> 100 µM	> 100 µM	> 100	> 100 µM	> 100 µM	> 100 µM	> 100 µM										
O=C1c2ccccc2C(=O)c2c1oc1cc(O)c(Cl)cc21	29.6 µM	25.9 µM	6.88 µM	34 µM	7.88 µM	3.35	45.4 µM	7.16 µM	24.5 µM	34.3 µM										
Nc1ccc(Oc2ccc(C34CC5C6CC7(c8ccc(Oc9ccc(N)cc9)cc8)CC5C(C3)C(C7)C6C4)cc2)cc1	> 100 µM	> 100 µM	> 100 µM	> 100 µM	> 100 µM	> 100	> 100 µM	> 100 µM	> 100 µM	> 100 µM										
CC(C)CC(N)C(=O)NC(CNC(CCC(N)=O)C(=O)NC(CC(C)C)C(=O)NC(CC(C)C)C(=O)O)Cc1ccc2ccccc2c1 (stereo not given)	> 10 µM	> 10 µM	> 10 µM	> 10 µM	> 10 µM	> 10	> 10 µM	> 10 µM	> 10 µM	> 10 µM										
CNC(=O)O/N=C1\N(C)CN(c2ccccc2)C12CCN(CCCC(=O)c1ccc(F)cc1)CC2	> 100 µM	> 100 µM	32.9 µM	> 100 µM	> 100 µM	> 100	> 100 µM	> 100 µM	> 100 µM	> 100 µM										
NC(=O)C1=C(O)[C@@]2(O)C(=O)C3=C(O)c4c(O)cccc4CC3C[C@H]2CC1=O (stereo not given in full)	9.23 µM	6.05 µM	13.2 µM	12.9 µM	10.5 µM	41.2	13.7 µM	4.72 µM	9.58 µM	8.43 µM										
CC1(C=O)CC(CCc2ccccc2)NC1Cc1ccc(O)cc1 (stereo not given)	29 µM	30 µM	29.7 µM	27.9 µM	35 µM	32.1	37.6 µM	29 µM	31 µM	31.5 µM										
COC1(OC)CCN(Cc2ccccc2)C1=O	29.7 µM	23.4 µM	23 µM	44 µM	16.6 µM	22.6	55.3 µM	34 µM	26.4 µM	38.9 µM										
COC(=O)CN1Cc2cc(C)cc(c2O)CN(CC(=O)OC)Cc2cc(C)cc(c2O)CN(CC(=O)OC)Cc2cc(C)cc(c2O)CN(CC(=O)OC)Cc2cc(C)cc(c2O)C1	50 µM and > 100 µM	> 50 µM and 97.5 µM	18.7 µM and 51.5 µM	50 µM and > 100 µM	50 µM and > 100 µM	> 100	50 µM and 64 µM	50 µM and 31.3 µM	28.6 µM and > 100 µM	47.2 µM and > 100 µM	35.3	21.5	17.7	> 100	8.68	84.1	21.9	2.36	36.1	11.1
CC(C)(C)OC(=O)N(O)CCCn1cnc2c(NC3CC3)ncnc21	> 100 µM	> 100 µM	> 100 µM	> 100 µM	> 100 µM	> 100	> 100 µM	> 100 µM	> 100 µM	> 100 µM										
CN(C)CCC(=O)[C@@]1(O)CC[C@H]2[C@@H]3CC=C4C[C@@H](O)CC[C@]4(C)[C@H]3CC[C@@]21C	42.6 µM	39.7 µM	34.2 µM	29.7 µM	28.7 µM	34.5	72.1 µM	37.1 µM	23.1 µM	> 100 µM										
CCn1c2ccccc2c2ccc(C3C4C(=O)N(c5cccc6ccccc56)C(=O)C4ON3C(C(N)=O)c3ccccc3)cc21 (stereo not given)	> 25 µM	> 25 µM	> 25 µM	6.96 µM	> 25 µM	> 25	> 25 µM	> 25 µM	> 25 µM	8.05 µM										
